Measurements: patent US20080318942A1, “Fredericamycin Derivatives” (BIOAGENCY AG, priority 2005, published 2008)

Test system: human breast cancer cell line MCF7
Experiment: Efficacy of the compounds on the survival of tumor cells (cytotoxic effect, cell-titer Glo luminescence)
Format: cell-based
Details: 48 hours incubation with compound (2.4 nM to 10,000 nM), inhibition of cell survival
Method: The effect of the compounds on the survival of the human breast cancer cell line MCF7 was measured.
The cell line was analyzed at 37° C. [98.6° F.], 95% humidity and 5% CO2 in RPMI Medium (Cambrex).
The cells are inoculated in a 96-well microtiter plate (Costar) at an initial density of 2400 cells per well and cultivated for 24 hours.
The compounds are dissolved in DMSO, diluted with cell medium and added to the wells.
The cells are incubated for another 48 hours at a concentration of the compounds between 2.4 nM and 10,000 nM at a volume of 50 μl.
50 μl of cell-titer Glo (Promega) are added to each well and the microtiter plate is incubated for 2 minutes at room temperature on a shaker and then left standing in the dark for 10 minutes.
The luminescence is measured with a microplate reader and is proportional to the number of surviving cells. The percentage of inhibition of the cell survival is calculated in comparison to (i) without cells and with compound (100% inhibition) and (ii) with cells and without compound (no inhibition).
The concentration of the half-maximum inhibition (IC50) is determined with GraphPad Prism (GraphPad Software), whereby the controls are 0% and 100%.

Molecule | IC50 | IC50 (Homo sapiens)
C/C=C/C=C/c1cc2c(CN(C)C)c3c(c(O)c2c(=O)[nH]1)[C@@]1(CC3)C(=O)c2c(O)c3c(c(O)c2C1=O)C(=O)C(NC)=CC3=O [Compound 7a, (8S)-4′,9,9′-trihydroxy-5-dimethylaminomethyl-6′-methylamine-3-[(1E,3E)-penta-1,3-dienyl]-6,7-dihydrospiro[cyclopenta[g]-isoquinoline-8,2′-cyclopenta[b]-naphthalene]-1,1′-3′,5′,8′(2H)-pentone] | 660 nM | –
CON=Cc1cc2c(Br)c3c(c(O)c2c(=O)[nH]1)[C@]1(CC3)C(=O)c2c(O)c3c(c(O)c2C1=O)C(=O)C(N(C)C)=C(Br)C3=O [Compound 13, (8S)-4′,9,9′-trihydroxy-5,7′-dibromo-6′-dimethylamino-1,1′,3′,5′,8′-pentaoxo-1,1′,2,3′,5′,6,7,8′-octahydrospiro-[cyclopenta[g]-isoquinoline-8,2′-cyclopenta[b]naphthalene]-3-carbaldehyde-O-methyloxime] | – | 300 nM
C/C=C/C=C/c1cc2c(Br)c3c(c(O)c2c(=O)[nH]1)[C@]1(CC3)C(=O)c2c(O)c3c(c(O)c2C1=O)C(=O)C(N1CCOCC1)=C(Br)C3=O [Compound 9, (BS)-4′,9,9′-trihydroxy-5,7′-dibromo-6′-morpholino-3-[(1E,3E)-penta-1,3-dienyl]-6,7-dihydrospiro[cyclopenta[g]-isoquinoline-8,2′-cyclopenta[b]-naphthalene]-1,1′-3′,5′,8′(2H)-pentone] | 670 nM | –
(8S)-4,9,9′-trihydroxy-5,7′-dibromo-6′-cyclopropylamino-1,1′,3′,5′,8′-pentaoxo-1,1′,2,3′,5′,6,7,8′-octahydrospiro-[cyclopenta[g]-isoquinoline-8,2′-cyclopenta[b]naphthalene]-3-carbaldehyde-O-methyloxime [Compound 12] | 380 nM | –
C/C=C/C=C/c1cc2c(Br)c3c(c(O)c2c(=O)[nH]1)[C@]1(CC3)C(=O)c2c(O)c3c(c(O)c2C1=O)C(=O)C(NC)=C(Br)C3=O [Compound 7, (8S)-4′,9,9′-trihydroxy-5,7′-dibromo-6′-methylamino-3-[(1E,3E)-penta-1,3-dienyl]-6,7-dihydrospiro[cyclopenta[g]-isoquinoline-8,2′-cyclopenta[b]-naphthalene]-1,1′-3′,5′,8′(2H)-pentone] | 190 nM | –
